# Experimental data published in paper PMC8597422, “Activity-based protein profiling reveals deubiquitinase and aldehyde dehydrogenase targets of a cyanopyrrolidine probe” (RSC Medicinal Chemistry, 2021).
# Key:
# USP30 = target: T1, USP30 (Homo sapiens, UniProt Q70CQ3); test: DUB selectivity panel at […] (FP / FI in vitro assays); assay type: biochemical
# T1 sequence (Q70CQ3 1-517): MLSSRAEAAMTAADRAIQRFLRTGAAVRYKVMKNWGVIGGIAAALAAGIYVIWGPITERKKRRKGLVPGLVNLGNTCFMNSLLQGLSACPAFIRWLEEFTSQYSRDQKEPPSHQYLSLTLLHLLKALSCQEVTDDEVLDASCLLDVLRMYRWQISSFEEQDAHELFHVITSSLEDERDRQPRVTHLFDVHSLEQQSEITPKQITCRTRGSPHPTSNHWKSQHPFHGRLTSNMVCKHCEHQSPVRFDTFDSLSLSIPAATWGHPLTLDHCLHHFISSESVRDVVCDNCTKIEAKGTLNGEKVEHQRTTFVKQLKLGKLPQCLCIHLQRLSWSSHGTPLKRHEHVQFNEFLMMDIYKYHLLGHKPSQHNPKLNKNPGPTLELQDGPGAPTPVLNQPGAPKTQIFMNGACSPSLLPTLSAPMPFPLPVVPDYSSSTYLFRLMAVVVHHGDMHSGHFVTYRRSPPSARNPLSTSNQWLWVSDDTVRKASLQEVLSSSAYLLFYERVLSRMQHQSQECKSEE
# [1] = target: T2, Ubiquitin carboxy-terminal hydrolase L1 (UCHL1) (Homo sapiens, UniProt P09936); test: fluorescence polarization assay with Ub-Lys-TAMRA, […] min preincubation; covalent adduct by LC-ESI-MS; cellular HTRF; assay type: biochemical
# T2 construct: recombinant UCHL1
# T2 sequence (P09936 1-220): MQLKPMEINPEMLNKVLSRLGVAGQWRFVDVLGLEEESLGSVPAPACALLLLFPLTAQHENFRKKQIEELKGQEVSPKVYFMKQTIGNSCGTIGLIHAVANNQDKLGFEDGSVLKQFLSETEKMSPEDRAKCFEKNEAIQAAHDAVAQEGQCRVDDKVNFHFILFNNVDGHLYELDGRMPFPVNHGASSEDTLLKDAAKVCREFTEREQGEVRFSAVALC
# ALDH2 [2] = target: T3, ALDH2 (Homo sapiens, UniProt P05091); test: competitive ABPP against MT16-205 in HEK293 cells (LFQ proteomics); assay type: cell-based
# T3 sequence (P05091 18-517): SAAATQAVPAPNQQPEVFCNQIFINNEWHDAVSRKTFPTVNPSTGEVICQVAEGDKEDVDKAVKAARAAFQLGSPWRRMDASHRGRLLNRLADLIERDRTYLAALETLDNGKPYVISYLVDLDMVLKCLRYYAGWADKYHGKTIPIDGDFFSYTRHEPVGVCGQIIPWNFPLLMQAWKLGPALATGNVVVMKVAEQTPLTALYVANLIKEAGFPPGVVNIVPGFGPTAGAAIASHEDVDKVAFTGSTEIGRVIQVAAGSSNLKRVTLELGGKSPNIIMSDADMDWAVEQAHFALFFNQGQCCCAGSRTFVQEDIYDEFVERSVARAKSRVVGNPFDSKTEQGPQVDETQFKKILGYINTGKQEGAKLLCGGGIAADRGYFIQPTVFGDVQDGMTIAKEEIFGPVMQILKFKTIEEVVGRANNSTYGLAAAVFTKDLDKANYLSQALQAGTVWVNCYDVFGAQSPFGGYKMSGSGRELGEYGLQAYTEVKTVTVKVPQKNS
# ALDH2 [3] = target: T3, ALDH2; test: ABPP in HEK293 cells, LFQ chemical proteomics, competed by MT16-001; assay type: cell-based
# [4] = target: T2, Ubiquitin carboxy-terminal hydrolase L1 (UCHL1); test: fluorescence polarization assay with Ub-Lys-TAMRA, […] min preincubation; covalent adduct by LC-ESI-MS; ABPP pulldown; assay type: biochemical
# ALDH9A1 = ALDH9A1 (Homo sapiens, UniProt P49189); test: ABPP in HEK293 cells: streptavidin pulldown immunoblot and LFQ chemical proteomics; assay type: cell-based
# Chain of ALDH9A1 (P49189 whole entry): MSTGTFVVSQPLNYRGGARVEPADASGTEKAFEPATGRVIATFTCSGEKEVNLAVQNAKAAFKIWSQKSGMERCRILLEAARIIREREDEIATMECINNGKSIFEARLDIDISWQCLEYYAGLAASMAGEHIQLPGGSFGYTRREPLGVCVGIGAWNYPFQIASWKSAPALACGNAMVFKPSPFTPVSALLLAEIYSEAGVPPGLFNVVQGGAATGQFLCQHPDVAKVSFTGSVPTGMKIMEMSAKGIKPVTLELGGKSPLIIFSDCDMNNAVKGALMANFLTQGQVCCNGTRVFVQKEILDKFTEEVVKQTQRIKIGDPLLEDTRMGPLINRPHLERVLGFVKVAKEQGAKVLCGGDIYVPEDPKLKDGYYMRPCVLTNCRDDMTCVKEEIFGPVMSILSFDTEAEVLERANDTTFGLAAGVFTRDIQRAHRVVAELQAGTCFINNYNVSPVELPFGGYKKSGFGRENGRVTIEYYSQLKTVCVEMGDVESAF
smiles,measurement,setting,value
N#CN1CC[C@H](C(=O)Nc2nc(-c3ccccc3)cs2)C1 [MT16-009],inhibition at 1 µM,USP30,50%
N#CN1CC[C@H](C(=O)Nc2ncc(-c3ccccc3)s2)C1 [MT16-001],IC50,[1],580 ± 25 nM
same,competitive ABPP against MT16-205 in HEK293 cells (LFQ proteomics),ALDH2 [2],"Four targets, ALDH2, ALDH9A1, GATD3A and UCHL1, responded to parent compound MT16-001 in a concentration dependent manner."
C#Cc1ccc(-c2cnc(NC(=O)[C@H]3CCN(C#N)C3)s2)cc1 [MT16-205],"ABPP in HEK293 cells, LFQ chemical proteomics, competed by MT16-001",ALDH2 [3],"ALDH2, ALDH9A1, and GATD3A were confirmed as the genuine targets of MT16-001, MT16-205 and MT16-009"
same,IC50,[4],600 ± 78 nM
same,ABPP in HEK293 cells: streptavidin pulldown immunoblot and LFQ chemical proteomi,ALDH9A1,"also ALDH9A1, which was one of the off-targets of MT16-205 in HEK293 cells"
